In patent publication US9670229B2, “5-HT3 receptor antagonists” (Takeda Pharmaceutical Company Limited, priority 2012, dated 2017):

Target: 5-HT3a receptor expressed in HEK-293T cells (Homo sapiens (Human), UniProt P46098)
Experiment: Inhibition of Ca flux activity of 5-HT3 in vitro assay
Type: cell-based
Conditions: approximate IC50; calcium flux, 5HT 216 nM, HEK-293T cells transfected with 5-HT3a
Procedure: The 5-HT3 antagonist activity of the compounds of the invention was determined by measuring the ability of the compounds to inhibit the calcium flux activity of […] receptor expressed in HEK-293T cells. HEK-293T cells were transfected with the 5-HT3a expression construct using Xtreme Gene 9 (Roche) in 150 mm tissue culture treated plates and incubated for 24 hours at 37° C. Cells were then split and plated at a density of 60K cells/well in poly-lysine coated, black 96-well plates with clear bottoms (BD BioSciences) and incubated overnight at 37° C. Growth media was removed and cells loaded with 200 uL calcium indicator dye in HBSS containing 20 mM HEPES (Calcium 5 Assay kit, Molecular Devices) and incubated at 37° C. for 1 hour. While cells were incubating, the 10× antagonist and agonist/antagonist addition plates were made. For 10× antagonist plate: half log serial dilutions (final concentrations range from 10^−7 through 10^−10 with the bottom well a negative, no ligand control) were made from test compounds in DMSO at a 1000× concentration and then diluted to 10× in HBSS/20 mM HEPES. For addition plate: 5HT was diluted to 100× in HBSS/20 mM HEPES (final concentration in the assay-216 nM) and 15 uL was added to each well of the addition plate, 15 uL of 10× compound was also added to the addition plate, and finally 120 uL of HBSS/20 mM HEPES (for a total of 150 uL). Cells were then removed from the incubator and equilibrated to room temperature for 10 minutes, then 22.5 uL of 10× test compounds were added in triplicate to the plates and incubated at room temperature for 10 minutes (Tropisetron was used as a positive control in every assay). Test plate and addition plate were loaded into the FlexStation III (Molecular Devices), and using the fluidics, 22.5 uL compound additions were made (at t=˜17 seconds), and fluorescence was measured for 90 seconds, reading every 2.2 seconds. Data sets were analyzed as max minus min using Software Max Pro (Molecular Devices). IC50 curves were generated using non-linear regression in GraphPad Prism.

Sequence of 5-HT3a receptor expressed in HEK-293T cells (P46098 24-478): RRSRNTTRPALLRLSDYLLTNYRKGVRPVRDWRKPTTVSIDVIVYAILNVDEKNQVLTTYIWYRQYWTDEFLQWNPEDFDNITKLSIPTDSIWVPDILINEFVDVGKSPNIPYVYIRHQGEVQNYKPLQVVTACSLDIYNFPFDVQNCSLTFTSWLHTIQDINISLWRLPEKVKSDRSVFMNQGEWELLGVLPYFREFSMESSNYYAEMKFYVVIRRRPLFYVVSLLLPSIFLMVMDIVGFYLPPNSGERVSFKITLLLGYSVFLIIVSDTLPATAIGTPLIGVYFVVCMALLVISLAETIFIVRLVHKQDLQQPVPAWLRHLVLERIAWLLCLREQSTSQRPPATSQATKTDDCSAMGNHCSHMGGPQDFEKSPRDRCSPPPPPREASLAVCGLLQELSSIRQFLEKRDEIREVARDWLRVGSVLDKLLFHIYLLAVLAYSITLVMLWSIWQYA

Molecule | IC50 [nM]
CN1[C@@H]2COC[C@H]1C[C@@H](NC(=O)c1cn(-c3ccccn3)c3ccccc13)C2 [Compound 6, N-((1R,5S,7S)-9-methyl-d3-3-oxa-9-azabicyclo[3.3.1]nonan-7-yl)-1-(pyridin-2-yl)-1H-indole-3-carboxamide, 2,2,2-trifluoroacetate] | 1.1
CN1[C@@H]2COC[C@H]1C[C@@H](OC(=O)c1cn(-c3cnn(C)c3)c3ccccc13)C2 [Compound 26, (1R,5S,7S)-9-methyl-3-oxa-9-azabicyclo[3.3.1]nonan-7-yl 1-(1-methyl-1H-pyrazol-4-yl)-1H-indole-3-carboxylate] | 1.2
CN1[C@@H]2COC[C@H]1C[C@@H](OC(=O)c1cn(-c3cn[nH]c3)c3ccccc13)C2 [Compound 29, (1R,5S,7S)-9-methyl-3-oxa-9-azabicyclo [3.3.1]nonan-7-yl 1-(1H-pyrazol-4-yl)-1H-indole-3-carboxylate] | 0.462
CN1[C@@H]2COC[C@H]1C[C@@H](NC(=O)c1cn(-c3ccc[n+]([O-])c3)c3ccccc13)C2 [Compound 32, 3-(3-(((1R,5S,7S)-9-methyl-3-oxa-9-azabicyclo[3.3.1]nonan-7-yl)carbamoyl)-1H-indol-1-yl)pyridine 1-oxide] | 1.36
(1R,5S,7S)-9-methyl-3-oxa-9-azabicyclo [3.3.1]nonan-7-yl 1-(1-(2-fluoroethyl)- 1H-pyrazol-4-yl)-1H-indole-3-carboxylate, 2,2,2-trifluoroacetic acid salt [Compound 18] | 2.01
